We go through five molecules from patent US20040209933A1, “Oxazole derivatives” (priority 2003, published 2004).

Data set [1] concerns QG56 cells. The experiment in a line: BrdU/Hoechst quenching assay, cell kinetic FACS analysis (G1 cell cycle arrest). It counts as cell-based. The note with it: incubation for 24 h; for percentage of QG56 cells arrested in the first G1 phase, compared with reference compound: 3 μM; for n-fold increase of cells arrested in first cell cycle: compound concentration 3 μM, QG56 squamous cell carcinoma cells, Control (DMSO) = 1. The procedure:
A squamous cell carcinoma cell line (e.g. QG 56) was cultivated in DMEM/10%FCS/2 mM glutamine at about 60% confluency. Exponentially growing cells were seeded at a density of 1×10^4 cells/cm^2 in 2 ml of medium per 6 wells. After 24 hours medium was replaced and compounds were added.
For the BrdU/Hoechst quenching assay the media were supplemented with […] and deoxycytidine, respectively. All experiments were performed in 6 well culture plates.
The cell culture setup is as described above. All compounds were dissolved in DMSO at a concentration of 10 mM.
Adherent cells were harvested at 24 h by trypsinization and cells from the supernatant were added to the population.
After centrifugation cell pellets were resuspended at 1-10×10^5 cells/ml in DNA-staining puffer (100 mM Tris pH 7.4, 154 mM NaCl, 1 mM CaCl2, 0.5 mM MgCl2, 0.2% BSA, 0.1% NP40) supplemented with 5 ug/ml RNAse A and 1.5 ug/ml Hoechst 33258. After 15 min propidium iodide was added to a final concentration of 1.5 ug/ml for another 15 min. The fluorochrome labeled cells were analysed on a flow cytometer (BD LSR) applying dual laser excitation (UV and 488 nm).
Compounds of Example 1, Example 2 and Example 4 were tested at a concentration of 3 μM.
Background: A flow cytometer gives signals particle by particle.

Molecules are shown by their SMILES.

What is called melting point is the temperature of the solid-liquid transition. Take `COc1ccc(C=Cc2nc(COc3ccc(CCCCn4ccnn4)cc3)co2)cc1` [Example 1, 1-[4-(4-{2-[2-(4-Methoxy-phenyl)-vinyl]-oxazol-4-ylmethoxy}-phenyl)-butyl]-1H-[1,2,3]triazole]: the melting point lay within 148 to 151 °C. In data set [1], the “percentage of QG56 cells arrested in the first G1 phase, compared with reference compound” value (from here on “percentage of QG56 cells arrested”) is recorded as “higher percentage” and the “n-fold increase of cells arrested in first cell cycle” value (from here on “n-fold increase of cells arrested”) turned out to be 23.7 n-fold.

On to `FC(F)(F)Oc1ccc(C=Cc2nc(COc3ccc(CCCCn4ccnn4)cc3)co2)cc1` [Example 2, 1-[4-(4-{2-[2-(4-Trifluoromethoxy-phenyl)-vinyl]-oxazol-4-ylmethoxy}-phenyl)-butyl]-1H-[1,2,3]triazole], for which the melting point was 138 to 140 °C. Also, in data set [1], the “percentage of QG56 cells arrested” value is recorded as “higher percentage” and the “n-fold increase of cells arrested” value was determined as 19.2 n-fold.

Take `C(=Cc1nc(COc2ccc(CCCCn3ccnn3)cc2)co1)c1ccc2c(c1)OCO2` [Example 4, 1-(4-{4-[2-(2-Benzo[1,3]dioxol-5-yl-vinyl)-oxazol-4-ylmethoxy]-phenyl}-butyl)-1H-[1,2,3]triazole]: in data set [1], the “percentage of QG56 cells arrested” value is on record as “higher percentage” and the “n-fold increase of cells arrested” value stood at 17.9 n-fold.

`FC(F)(F)Sc1ccc(C=Cc2nc(COc3ccc(CCCCn4ccnn4)cc3)co2)cc1` [Example 5, 1-[4-(4-{2-[2-(4-Trifluoromethylsulfanyl-phenyl)-vinyl]-oxazol-4-ylmethoxy}-phenyl)-butyl]-1H-[1,2,3]triazole]: the melting point was in the range of 144 to 145 °C.

Regarding `FC(F)(F)c1ccc(C=Cc2nc(COc3ccc(CCCCn4ccnn4)cc3)co2)cc1` [reference compound, 1-[4-(4-{2-[2-(4-Trifluoromethyl-phenyl)-vinyl]-oxazol-4-ylmethoxy}-phenyl)-butyl]-1H-[1,2,3]triazole, reference compound], the “n-fold increase of cells arrested” value in data set [1] came to 17.2 n-fold.
